Test results reported in US20080015147A1, “Method for inhibiting neuronal cell death” (priority 2006, published 2008).

Assays:
[1] = system: PARP; experiment: PARP cleavage by immunoblot; assay type: cell-based, mouse; conditions: 48 hour; all pH treatments
Procedure: Using the same protocol, changes in PARP expression were determined at 48 hrs. The membrane was incubated with PARP primary antibody (Cell Signaling Technology, Beverly) at a titre of 1:100. The membranes were washed 3 times for 5 min with 10 ml of PBST followed by membrane incubation with anti-rabbit horseradish peroxidase (HRP)-conjugated secondary antibody (Amersham, Baie d'Urfé) at 1:3000 in 6 ml of PBST-milk with gentle agitation for 1 hr at RT. The membranes were then washed 3 times for 5 min with 10 ml of PBST then exposed to Kodak X-OMAT Blue scientific imaging film (Perkin Elmer Canada Inc, Vaudreuil-Dorion) for 30 min. Total optical density of the blots, were quantified using LabWorks 4.0 Image Acquisition and Analysis Software from Ultra-Violet Products Ltd. (UVP).

[2] = system: N38 cells; experiment: Bromodeoxyuridine (BrdU) incorporation assay; assay type: cell-based, mouse; conditions: 24 or 48 hrs; pH extremes
From the text: The evaluation of cell cycle progression is important when assessing the viability of a cell population. The cell cycle is a sequence of stages that a cell passes through between one division and the next. The cell cycle oscillates between mitosis and the interphase, which is divided into G, S, and G 2. In the G phase there is a high rate of biosynthesis and growth; in the S phase there is the doubling of the DNA content as a consequence of chromosome replication; in the G 2 phase the final preparations for cell division (cytokinesis) are made (Raza, 1985). In order to determine whether TCAP was increasing cell cycle efficiency, a bromodeoxyuridine (BrdU) non-isotopic enzyme immunoassay was conducted (Calbiochem, Canada). BrdU incorporation into newly synthesized DNA of actively proliferating cells enables one to quantify cell cycle progression and the population of cells entering the S phase(Gratzner, 1982; Raza, 1985).
N38 cells were grown in a 96-well culture plate using 100 μl at an initial density of 2×10^5 cells/ml. Controls consisted of a blank, one well containing only DMEM with no cells and background, and one well with cells but with no BrdU label added. […] Absorbance was measured on a SPECTRAmax Microplate spectrophotometer at dual wavelengths at 450-540 nm.

[3] = system: superoxide radical; experiment: Superoxide radical measured by conversion of a soluble tetrazolium salt; assay type: cell-based, mouse; conditions: 48 hours
Procedure: The presence of the superoxide radical was measured indirectly by the conversion of a soluble tetrazolium salt in cells after 48 hours (FIG. 8A).

[4] = system: N38 cells immortalized mouse hypothalamic cell line; experiment: Cell morphology analysis (small round necrotic cells); assay type: cell-based; conditions: for number of small round (necrotic) cells, vehicle vs TCAP-treated: 48 hrs; for number of rounded cells relative to vehicle: 72 hrs
Procedure: The effect of TCAP-1 on cell morphology was conducted using the N38 cells immortalized mouse hypothalamic cell line(Belsham et al, 2004). Cells were grown in six-well culture plate with 2 ml of Dulbeco's Modified Eagle Medium (DMEM) with high glucose, […], 25 mM HEPES buffer, pyridoxine hydrochloride in the absence of sodium pyruvate, 5 ml penicillin with 10% fetal bovine serum (FBS) at pH 7.4 (all from Gibco-Invitrogen, Burlington, Canada).
At 24 and 48 hrs, the medium was replaced with medium buffered at pH 6.8, 7.4, 8.0 or 8.4. Half of the cell groups received (2×10^−7 M) TCAP-1, whereas the other half received phosphate buffered saline (PBS) pH 7.4 containing 8 g NaCl, 0.2 g KCl, 1.4 g Na2HPO4, 0.2 g KH2PO4 in. 800 mL ddH2O. For all groups, 4 replicates were run. Digital pictures were taken at 24, 48 and 72 hrs using an Olympus IX&1 inverted microscope at a magnification of 200× and analyzed using LabWorks 4.0 Image Acquisition and Analysis software (UltraViolet Products Ltd).

[5] = system: N38 cells; experiment: Fluorescent microscopy of necrosis and apoptosis markers; assay type: cell-based, mouse; conditions: 48 hrs
Procedure: N38 cells were cultured on poly-D-Lysine treated coverslips (VWR, Mississauga) in each of the four pH condition, and cells were washed twice with PBS, each fluorochrome was added to each well: 5 μl Fluorescein (FITC)-Annexin V in Tris EDTA buffer containing 0.1% BSA (Bovine serum albumin) and 0.1% NaN3, pH 7.5, 5 μl rhodamine EtD-III 200 μM in PBS and 5 μl 4′,6-Diamidino-2-phenylindole (DAPI) Hoechst 33342 5 μg/mL in PBS (Biotium, Inc. Hayward). The samples were incubated in the dark for 15 min, then washed before being placed on slides. The cells were viewed under a Leica DM4500 inverted fluorescent microscope and digitally analyzed using OpenLab software.
Annexin V labelled with fluorescein (FITC) was used to identify apoptotic cells in green. Ethidium homodimer III (EtD-III) is a positively charged nucleic acid probe, which is impermeable to live or apoptotic cells but stains necrotic cells with red fluorescence (rhodamine) and Hoechst 3342 (4′,6-Diamidino-2-phenylindole) (DAPI) emits bright blue fluorescence upon binding to DNA in living cells.

**Q.** “teneurin C-terminus associated peptide [TCAP-1]” was tested. Which “PARP on western blot, vehicle vs TCAP” value [1] did it give?
**A.** Its value is “no significant differences between vehicle and TCAP treated samples”.

**Q.** And the BrdU incorporation [2]?
**A.** The BrdU incorporation was “no significant results”.

**Q.** And the “decrease in absorbance of the substrate (proportional to superoxide radical activity)” value ([3]; pH 8.0, p<0.05)?
**A.** The value was 40%.

**Q.** What about the “decrease in absorbance of the substrate (proportional to superoxide radical activity)” value ([3]; pH 8.4, p<0.01) of the same substance?
**A.** Its value is 60%.

**Q.** And the “number of small round (necrotic) cells, vehicle vs TCAP-treated” value (“number of small round … vs TCAP-treated” for short) ([4]; pH 6.8, p<0.05)?
**A.** Its value is “significant increase in the number of small round cell types (necrotic cells) in the vehicle-treated cultures”.

**Q.** And the observable morphological changes ([4]; pH 7.4, TCAP-1 2×10^−7 M)?
**A.** Its observable morphological changes is “did not induce any observable morphological changes”.

**Q.** What about the “number of small round … vs TCAP-treated” value ([4]; pH 8.0, p<0.001) of the same substance?
**A.** Its value is “significant increase in the number of small round cell types (necrotic cells) in the vehicle-treated cultures”.

**Q.** What about the “number of rounded cells relative to vehicle” value ([4]; pH 8.0, p<0.001) of the same substance?
**A.** Its value is “significantly decreased the number of rounded cells”.

**Q.** What about the “number of small round … vs TCAP-treated” value ([4]; pH 8.4, p<0.001) of the same substance?
**A.** Its value is “significant increase in the number of small round cell types (necrotic cells) in the vehicle-treated cultures”.

**Q.** What about the “number of rounded cells relative to vehicle” value ([4]; pH 8.4, p<0.001) of the same substance?
**A.** Its value is “significantly decreased the number of rounded cells”.

**Q.** What about the “number of rhodamine-fluorescing (necrotic) cells” value (“number of rhodamine-fluorescing” below) ([5]; pH 6.8) of the same substance?
**A.** The value was “decreased the number of rhodamine-fluorescing cells”.

**Q.** And the “number of rhodamine-fluorescing” value ([5]; pH 6.8, listed as TCAP)?
**A.** The value was “significantly decreased the amount of necrotic cells”.

**Q.** And the “number of rhodamine-fluorescing” value ([5]; pH 8.0)?
**A.** Its value is “decreased the number of rhodamine-fluorescing cells”.

**Q.** And the “number of rhodamine-fluorescing” value ([5]; pH 8.0, listed as TCAP)?
**A.** The value was “significantly decreased the amount of necrotic cells”.

**Q.** What about the “number of rhodamine-fluorescing” value ([5]; pH 8.4) of the same substance?
**A.** Its value is “decreased the number of rhodamine-fluorescing cells”.

**Q.** And the “number of rhodamine-fluorescing” value ([5]; pH 8.4, listed as TCAP)?
**A.** Its value is “significantly decreased the amount of necrotic cells”.
